Common to all, as to assay type: cell-based
Assay [1] deals with T1, human TRPV1 (Homo sapiens, UniProt Q8NER1).
T1 construct: expressed in transfected cells; host or cells: HEK-293
The assay can be described thus: Pre-Incubation Test (FLIPR intracellular calcium, HEK-293 cells, capsaicin activator). Conditions: test compound final 100 μM. The procedure:
(§1) The Pre-Incubation Test and Direct Addition Test Methods, as defined herein, can be conducted on either TRPV1 or TRPA1 receptors.
(§2) Pre-Incubation Test Method: First, the intracellular calcium ion (Ca^+2) levels in TRPV1 and TRPA1 receptors is measured. HEK-293 (human embryonic kidney) cells stably transfected with human TRPV1 or TRPA1 are grown in 15 ml growth medium [high glucose DMEM (Dulbecco's Modification of Eagle's Medium) supplemented with 10% FBS (fetal bovine serum), 100 μg/ml Penicillin/streptomycin, 100 μg/ml G418] in a 75 Cm^2 flask for 3 days at 33° C. in a mammalian cell culture incubator set at 5% CO2. Cells are detached with addition of 10 ml of PBS (phosphate buffered saline) by hand shaking gently. […] Fluo-4 is a fluorescent dye used for quantifying cellular Ca^2+ concentrations in the 100 nM to 1 microM range. […]
(§3) The pellet cells are re-suspended in 10 ml assay buffer and 90 μl aliquots (50,000 cells) per well delivered to a 96-well assay plate containing 10 μl of test compounds (1 mM in assay buffer, final concentration 100 μM) or buffer control and incubated at room temperature for 30 minutes. After 30 minutes, the plate is placed into a fluorometric imaging plate reader (FLIPR^384 from Molecular Devices) and basal fluorescence recorded (excitation wave length 488 nm and emission wave length 510 nm). […]

In assay [2] the target is T2, human TRPA1 (Homo sapiens, UniProt O75762).
T2 construct: expressed in transfected cells; host or cells: HEK-293
The experiment in a line: Direct Addition Test (FLIPR intracellular calcium, HEK-293 cells). Conditions: compound final 100 μM. The procedure:
as §1
(§4) Pre-Incubation Test Method: First, the intracellular calcium ion (Ca^+2) levels in TRPV1 and TRPA1 receptors is measured. HEK-293 (human embryonic kidney) cells stably transfected with human TRPV1 or TRPA1 are grown in 15 ml growth medium [high glucose DMEM (Dulbecco's Modification of Eagle's Medium) supplemented with 10% FBS (fetal bovine serum), 100 μg/ml Penicillin/streptomycin, 100 μg/ml G418] in a 75 Cm^2 flask for 3 days at 33° C. in a mammalian cell culture incubator set at 5% CO2. Cells are detached with addition of 10 ml of PBS (phosphate buffered saline) by hand shaking gently. Cells are transferred to a 50 ml tube and centrifuged at 850 rpm for 3 minutes to remove PBS. After centrifugation, a pellet of cells is formed in the bottom of the tube separating them from the supernatant solution. The supernatant is discarded and the cell pellet is suspended in 1 ml of fresh growth medium to which 5 μl (12.5 μg) of Fluo-4 AM (Molecular Probes, Inc.) calcium indicator is added and incubated for 30 min with gentle shaking on a plate shaker. Fluo-4 is a fluorescent dye used for quantifying cellular Ca^2+ concentrations in the 100 nM to 1 microM range. At the end of the 30 minutes, 45 ml of assay buffer [1×HBSS (Hank's Balanced Salt Solution), 20 mM HEPES (4-(2-Hydroxyethyl)-1-piperazineethanesulfonic acid)] is added to wash cells and the resulting combination is then centrifuged at 850 rpm for 3 minutes to remove excess buffer and Fluo-4 AM calcium indicator.
(§5) The pellet cells are re-suspended in 10 ml assay buffer and 90 μl aliquots (50,000 cells) per well delivered to a 96-well assay plate containing 10 μl of test compounds (1 mM in assay buffer, final concentration 100 μM) or buffer control and incubated at room temperature for 30 minutes. After 30 minutes, the plate is placed into a fluorometric imaging plate reader (FLIPR^384 from Molecular Devices) and basal fluorescence recorded (excitation wave length 488 nm and emission wave length 510 nm). […] Then 20 μl of the activators [1.8 μM Capsaicin (final concentration 300 nM) for TRPV1 or 300 μM AITC (final concentration 50 μM) for TRPA1 is added by FLIPR automatically and fluorescence recorded immediately.
(§6) Direct Addition Test Method (for determining the direct effect of test compounds on TRPV1 and TRPA1): All procedures are same as the pre-incubation test except 10 μl assay buffer instead of 10 μl test compounds in the 96-well assay plates. The fluorescence is measured immediately after addition of 20 μl of 600 μM each compound (final concentration 100 μM). […] The percentage of up-regulation or down-regulation is calculated based on the fluorescence measurement.

In assay [3] the target is T1, human TRPV1. The assay is described as above. As to conditions: compound final 100 μM. As to the method:
as §1, §4, §5, §6

The target in assay [4] is T2, human TRPA1. The experiment in a line: Pre-Incubation Test (FLIPR intracellular calcium, HEK-293 cells, AITC activator). Conditions: test compound final 100 μM. The procedure: as §1, §2, §3
On the technique in general: A change in cytosolic calcium serves as a functional read-out for many receptors and channels.

Setting [5] is: calculated from fluorescence relative to activator.

T2 sequence (O75762 whole entry): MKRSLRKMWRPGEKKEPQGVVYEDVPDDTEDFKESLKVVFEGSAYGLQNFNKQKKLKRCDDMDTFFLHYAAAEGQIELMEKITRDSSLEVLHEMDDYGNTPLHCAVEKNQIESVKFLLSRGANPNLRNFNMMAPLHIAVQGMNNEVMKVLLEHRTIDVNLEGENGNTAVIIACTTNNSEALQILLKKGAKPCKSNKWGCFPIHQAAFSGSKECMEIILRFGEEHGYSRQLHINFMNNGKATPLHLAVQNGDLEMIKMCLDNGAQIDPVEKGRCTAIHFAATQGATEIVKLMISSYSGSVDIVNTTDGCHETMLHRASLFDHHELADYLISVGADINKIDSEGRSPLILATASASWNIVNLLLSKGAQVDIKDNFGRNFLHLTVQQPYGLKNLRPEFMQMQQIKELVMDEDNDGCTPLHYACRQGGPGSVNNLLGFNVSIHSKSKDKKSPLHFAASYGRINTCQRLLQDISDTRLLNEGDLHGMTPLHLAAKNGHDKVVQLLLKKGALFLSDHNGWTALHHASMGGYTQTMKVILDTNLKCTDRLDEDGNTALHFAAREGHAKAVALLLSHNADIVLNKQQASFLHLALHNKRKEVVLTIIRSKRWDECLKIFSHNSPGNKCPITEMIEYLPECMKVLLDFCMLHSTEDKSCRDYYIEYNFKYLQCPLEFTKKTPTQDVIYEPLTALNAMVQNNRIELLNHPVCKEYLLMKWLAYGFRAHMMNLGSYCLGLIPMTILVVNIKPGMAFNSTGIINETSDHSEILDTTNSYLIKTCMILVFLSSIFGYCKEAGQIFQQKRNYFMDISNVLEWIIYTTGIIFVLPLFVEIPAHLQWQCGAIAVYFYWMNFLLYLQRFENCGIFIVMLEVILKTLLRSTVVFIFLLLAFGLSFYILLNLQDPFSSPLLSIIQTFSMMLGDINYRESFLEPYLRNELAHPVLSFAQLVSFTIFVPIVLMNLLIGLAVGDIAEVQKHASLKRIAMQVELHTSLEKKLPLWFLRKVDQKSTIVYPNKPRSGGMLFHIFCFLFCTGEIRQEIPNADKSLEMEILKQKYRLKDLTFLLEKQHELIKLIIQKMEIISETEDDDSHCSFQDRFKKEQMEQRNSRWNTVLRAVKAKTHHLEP
T1 sequence (Q8NER1 whole entry): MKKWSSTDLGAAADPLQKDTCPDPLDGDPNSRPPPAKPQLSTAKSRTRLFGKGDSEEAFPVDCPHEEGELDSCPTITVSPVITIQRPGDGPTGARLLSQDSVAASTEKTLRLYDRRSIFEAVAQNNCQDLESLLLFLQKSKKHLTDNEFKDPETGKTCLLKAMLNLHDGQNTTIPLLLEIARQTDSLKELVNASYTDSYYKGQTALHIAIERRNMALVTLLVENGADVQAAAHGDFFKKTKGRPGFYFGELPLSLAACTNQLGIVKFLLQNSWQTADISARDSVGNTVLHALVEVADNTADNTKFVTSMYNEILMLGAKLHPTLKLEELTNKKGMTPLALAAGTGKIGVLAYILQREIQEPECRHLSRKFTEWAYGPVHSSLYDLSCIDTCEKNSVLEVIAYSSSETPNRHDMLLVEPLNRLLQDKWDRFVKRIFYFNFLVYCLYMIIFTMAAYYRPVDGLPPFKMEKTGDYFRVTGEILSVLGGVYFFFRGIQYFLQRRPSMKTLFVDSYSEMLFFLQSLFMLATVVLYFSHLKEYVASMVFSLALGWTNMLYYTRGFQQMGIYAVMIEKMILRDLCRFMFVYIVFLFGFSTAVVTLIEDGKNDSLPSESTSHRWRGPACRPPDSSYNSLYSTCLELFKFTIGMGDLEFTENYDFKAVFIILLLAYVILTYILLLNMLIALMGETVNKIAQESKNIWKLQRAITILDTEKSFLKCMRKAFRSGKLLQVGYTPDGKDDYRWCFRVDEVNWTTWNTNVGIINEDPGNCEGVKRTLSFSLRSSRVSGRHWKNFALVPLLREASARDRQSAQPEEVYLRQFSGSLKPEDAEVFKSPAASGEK

Take `CC(=O)C1(C)CC2=C(CCCC2(C)C)CC1C` (centres unmarked) [Iso E Super, 1-(1,2,3,4,5,6,7,8-octahydro-2,3,8,8-tetramethyl-2naphthalenyl)-ethan-1-one]: the “Fluorescence value after adding Iso E Super” value at human TRPV1 [1] (30 min at room temperature, then capsaicin final 300 nM) is given as 2334.51 fluorescence units; at human TRPA1 [2] (measured immediately), 1386.593 fluorescence units; on human TRPV1 [3] (measured immediately), −82.62 fluorescence units; on human TRPA1 [4] (30 min at room temperature, then AITC final 50 μM), −57.37 fluorescence units. In addition, the “% Regulation” value is reported as 21.82% on human TRPV1 [1] (setting [5]), 11.53% on human TRPA1 [2] (setting [5]), −0.71% at human TRPV1 [3] (setting [5]) and −0.40% on human TRPA1 [4] (setting [5]).

The record behind these values is patent US9044429B2, “Personal care compositions comprising a methyl naphthalenyl ketone or a derivative thereof” (The Gillette Company, priority 2010, dated 2015).
